Experimental data: publication PMC3272345 (Chemmedchem, 2011)

Assays:
[1] = biological target: T1, Leishmania CRK3–CYC6 (Leishmania mexicana, UniProt O15851); assay: radiometric CRK3 assay; type: biochemical, L. mexicana CRK3, L. major CYC6
T1 sequence (O15851 1-311): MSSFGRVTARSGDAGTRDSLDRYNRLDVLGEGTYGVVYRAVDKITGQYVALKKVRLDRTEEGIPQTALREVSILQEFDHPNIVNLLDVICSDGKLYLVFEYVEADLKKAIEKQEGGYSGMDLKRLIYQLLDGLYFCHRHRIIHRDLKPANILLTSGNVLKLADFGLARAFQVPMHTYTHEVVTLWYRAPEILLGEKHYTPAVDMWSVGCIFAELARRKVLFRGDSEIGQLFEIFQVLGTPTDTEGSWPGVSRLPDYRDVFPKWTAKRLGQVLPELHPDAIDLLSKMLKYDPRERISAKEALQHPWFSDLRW
T1 sequence (Q4Q4U0 1-303 partner): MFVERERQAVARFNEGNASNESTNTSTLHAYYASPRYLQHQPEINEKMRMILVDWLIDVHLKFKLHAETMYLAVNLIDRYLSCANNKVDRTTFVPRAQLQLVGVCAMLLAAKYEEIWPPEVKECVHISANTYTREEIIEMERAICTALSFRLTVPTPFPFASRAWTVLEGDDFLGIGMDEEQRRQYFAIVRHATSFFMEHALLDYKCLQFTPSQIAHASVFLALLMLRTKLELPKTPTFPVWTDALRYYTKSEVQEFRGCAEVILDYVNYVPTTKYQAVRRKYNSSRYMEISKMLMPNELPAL

[2] = biological target: HsCDK2–CYCA (Homo sapiens, UniProt P24941); assay: radiometric CDK2 counter-screen; type: biochemical; details: HsCDK2–CYCA IC50 [μM], mean of two or more experiments; 1 μM ATP
[3] = biological target: T2, Leishmania CRK3–CYC6 complex (Leishmania mexicana, UniProt O15851); assay: IMAP-FP primary screen; type: biochemical, L. mexicana CRK3, L. major CYC6; details: for inhibition at 30 µM: read-out: CRK3–CYC6 Inhib. [%]
T2 sequence (O15851 1-311): T1 sequence (O15851 1-311)
T2 sequence (Q4Q4U0 1-303 partner): T1 sequence (Q4Q4U0 1-303 partner)

[4] = mammalian cell line counter-screen; type: cell-based; details: human, MRC5 cells
[5] = system: panel of 76 human kinases; assay: DSTT Dundee kinase panel; type: biochemical; details: for selectivity against panel of 76 human kinases (in words): 10 μM
[6] = CRK3–CYC6 IC50 [μM], mean of two or more experiments, 1 μM ATP

SMILES	IC50 [1, 6]	IC50 [2]	other results
CC1(C)CC(=O)C=C(NC(=O)NC2CCCCC2)C1 [Compound 54, 1-Cyclohexyl-3-(5,5-dimethyl-3-oxocyclohex-1-en-1-yl)urea]	0.098 µM	> 100 µM	–
CC(=O)Nc1cc(-c2ccc(Cl)cc2)n[nH]1 [Compound 2, N-(5-(4-Chlorophenyl)-1H-pyrazol-3-yl)acetamide]	3 µM	1.6 µM	inhibition at 30 µM [3]: 74%
CN[C@@H]1C[C@H]2O[C@@](C)([C@@H]1OC)n1c3ccccc3c3c4c(c5c6ccccc6n2c5c31)C(=O)NC4 [staurosporine, reference compound]	–	–	IC50 [3]: 29 nM; IC50 ([1]; potency (IC50) in radiometric Leishmania CRK3 assay): 0.0091 µM
COc1ccccc1NC(=O)NC1=CC(=O)CC(C)(C)C1 [Compound 55]	8 µM	> 100 µM	–
O=C(Nc1cc(-c2ccc(Cl)cc2)[nH]n1)C1CCC1 [Compound 7, N-(5-(4-Chlorophenyl)-1H-pyrazol-3-yl)cyclobutanecarboxamide]	0.9 µM	1.2 µM	inhibition at 30 µM [3]: 99%
O=C1C=C(NC(=O)Nc2ccccc2)CCC1 [Compound 61]	> 100 µM	> 100 µM	–
Cc1cccc(-c2ccc3nc(NCC4CCCCC4)nn3c2)c1 [Compound 36]	3 µM	64 µM	–
CC1(C)CC(=O)C=C(NC(=O)Nc2ccc(O)cc2)C1 [Compound 60]	–	5.9 µM	–
COc1cccc(NC(=O)NC2=CC(=O)CC(C)(C)C2)c1 [Compound 56, 1-(5,5-Dimethyl-3-oxocyclohex-1-en-1-yl)-3-(3-methoxyphenyl)urea]	0.04 µM	> 100 µM	–
COc1ccc(NC(=O)NC2=CC(=O)CC(C)(C)C2)cc1 [Compound 57]	0.89 µM	> 100 µM	–
O=C(Nc1cc(-c2ccc(Cl)cc2)[nH]n1)c1cccnc1 [Compound 10, N-(5-(4-Chlorophenyl)-1H-pyrazol-3-yl)nicotinamide]	–	–	inhibition at 30 µM [3]: 100%
CC1(C)CC(=O)C=C(NC(=O)Nc2ccccc2)C1 [Compound 50]	0.095 µM	> 100 µM	EC50 [4]: ≥ 50000 nM
CC1(C)CC(=O)C=C(NC(=O)Nc2ccc(OCc3ccccc3)cc2)C1 [Compound 58]	0.11 µM	> 100 µM	selectivity against panel of 76 human kinases (in words) [5]: highly selective
O=C(Nc1cc(-c2ccc(Cl)cc2)[nH]n1)C1CCCCC1 [Compound 11, N-[5-(4-Chlorophenyl)-1H-pyrazol-3-yl]cyclohexanecarboxamide]	–	–	inhibition at 30 µM [3]: 100%; selectivity against panel of 76 human kinases (in words) [5]: highly selective; number of human kinases with >50 % inhibition at 10 μM ([5]; of 76 kinases): three
COC(=O)c1ccc(NC(=O)NC2=CC(=O)CC(C)(C)C2)cc1 [Compound 59]	–	> 100 µM	selectivity against panel of 76 human kinases (in words) [5]: highly selective
